Where two headings read alike, the source gives them in different places.
Columns and labels:
RON [1] = molecular target: T1, RON (Homo sapiens, UniProt Q04912); test: RON inhibition (percent activity vs log concentration)
Description: (§1) The plot indicates percent activity of RON or cMet as a function of the log concentration of the compound (in moles, M). From the plot, the IC50 values may be obtained.

cMet = cMet (Homo sapiens, UniProt P08581); test: cMet inhibition (percent activity vs log concentration)
Description: as §1

[2] = test system: MDA-MB-231 tumor xenografts; test: MDA-MB-231 tumor xenograft, tumor volume
cancer cell lines = test: Cellular IC50 (GI50) of RON inhibitors with or without Dasatinib in cancer cell lines; format: cell-based; settings: all tested cell lines; co-administered with Dasatinib
Description: FIGS. 12A-12C show additional example data of a small molecule approach to inhibit SRC and RON in cancer cells. As described herein, one approach to validate the CombiGEM results (dual SRC and RON knockout using Cas and DNA constructs) can include using small molecule inhibitors to reduce function of SRC or RON. […] FIG. 12B and FIG. 12C show plots of GI50 as a function of treatment with RON inhibitors Foretinib or a Met/Ron inhibitor, respectively, co-administered with Dasatinib.

506 cell lines = test: Sensitivity of 506 cell lines to Dasatinib; format: cell-based; settings: FIG. 10
Description: The bar plot indicates the effect of various SRC inhibitors, YES inhibitors, or dual SRC/YES inhibitors on the sensitivity of the cells to inhibition; along with an inhibitor for an unrelated/control kinase WEE1. Each bar represents a different type of inhibitor, which may inhibit SRC, YES, SRC and YES, or WEE1. Bars 1-2 from the left of the plot indicate cells are most sensitive to inhibition when SRC and YES are both inhibited. Bars 3-6 from the left of the plot indicate sensitivity to inhibition for cells treated with SRC inhibitors. Bar 7 from the left of the plot indicates sensitivity to inhibition for cells treated with WEE1 inhibitor. […] from the left of the plot also indicate sensitivity to inhibition for cells treated with SRC inhibitors. Bar 9 from the left of the plot indicates sensitivity to inhibition for cells treated with YES1 inhibitor. Bar 10 from the left of the plot indicates sensitivity to inhibition for cells treated with WEE1 inhibitor. Increased sensitivity to inhibition is observed in SRC and YES dual inhibition, compared to SRC-only inhibition or YES-only inhibition. In FIG. 10, 506 cell lines are compared for sensitivity to Dasatinib (SRC and YES inhibitor). 119 of the 506 cell lines are more sensitive to Dasatinib than MDA-MB-231 cells. […] Cell lines that are sensitive to Dasatinib are more sensitive to other dual inhibitors of YES and SRC.

RON [3] = molecular target: T1, RON; test: RON dissociation constant (Kd); format: binding
Description: The four compounds “ENG-009”, “ENG-015”, “ENG-018”, and“ENG-035” are shown, along with their Ron and cMet inhibitory activities.

MDA-MB-231 cells = test: MDA-MB-231 cell viability as a function of SU-6656 concentration, with or without Dasatinib co-treatment; format: cell-based; settings: Homo sapiens, MDA-MB-231, MDA-MB-231, read-out: concentration of SU-6656 at 50% viability
Method: An additional approach to validate the CombiGEM results (dual SRC and YES knockout using Cas and DNA constructs) can include using small molecule inhibitors to reduce the function of SRC or YES. […] One group of cells is treated with only the YES inhibitor and the vehicle control (DMSO only). Two groups of cells are co-treated with Dasatinib, a SRC inhibitor, at a concentration of 500 nM or 1 μM. The control group (DMSO only, no Dasatinib) has a 50% viability at a concentration of 68.6 μM of SU-6656, compared to 20.4 μM for the cells co-treated with 500 nM Dasatinib and 12.7 μM for the cells co-treated with 1 μM Dasatinib.

T1 sequence (Q04912 25-1400): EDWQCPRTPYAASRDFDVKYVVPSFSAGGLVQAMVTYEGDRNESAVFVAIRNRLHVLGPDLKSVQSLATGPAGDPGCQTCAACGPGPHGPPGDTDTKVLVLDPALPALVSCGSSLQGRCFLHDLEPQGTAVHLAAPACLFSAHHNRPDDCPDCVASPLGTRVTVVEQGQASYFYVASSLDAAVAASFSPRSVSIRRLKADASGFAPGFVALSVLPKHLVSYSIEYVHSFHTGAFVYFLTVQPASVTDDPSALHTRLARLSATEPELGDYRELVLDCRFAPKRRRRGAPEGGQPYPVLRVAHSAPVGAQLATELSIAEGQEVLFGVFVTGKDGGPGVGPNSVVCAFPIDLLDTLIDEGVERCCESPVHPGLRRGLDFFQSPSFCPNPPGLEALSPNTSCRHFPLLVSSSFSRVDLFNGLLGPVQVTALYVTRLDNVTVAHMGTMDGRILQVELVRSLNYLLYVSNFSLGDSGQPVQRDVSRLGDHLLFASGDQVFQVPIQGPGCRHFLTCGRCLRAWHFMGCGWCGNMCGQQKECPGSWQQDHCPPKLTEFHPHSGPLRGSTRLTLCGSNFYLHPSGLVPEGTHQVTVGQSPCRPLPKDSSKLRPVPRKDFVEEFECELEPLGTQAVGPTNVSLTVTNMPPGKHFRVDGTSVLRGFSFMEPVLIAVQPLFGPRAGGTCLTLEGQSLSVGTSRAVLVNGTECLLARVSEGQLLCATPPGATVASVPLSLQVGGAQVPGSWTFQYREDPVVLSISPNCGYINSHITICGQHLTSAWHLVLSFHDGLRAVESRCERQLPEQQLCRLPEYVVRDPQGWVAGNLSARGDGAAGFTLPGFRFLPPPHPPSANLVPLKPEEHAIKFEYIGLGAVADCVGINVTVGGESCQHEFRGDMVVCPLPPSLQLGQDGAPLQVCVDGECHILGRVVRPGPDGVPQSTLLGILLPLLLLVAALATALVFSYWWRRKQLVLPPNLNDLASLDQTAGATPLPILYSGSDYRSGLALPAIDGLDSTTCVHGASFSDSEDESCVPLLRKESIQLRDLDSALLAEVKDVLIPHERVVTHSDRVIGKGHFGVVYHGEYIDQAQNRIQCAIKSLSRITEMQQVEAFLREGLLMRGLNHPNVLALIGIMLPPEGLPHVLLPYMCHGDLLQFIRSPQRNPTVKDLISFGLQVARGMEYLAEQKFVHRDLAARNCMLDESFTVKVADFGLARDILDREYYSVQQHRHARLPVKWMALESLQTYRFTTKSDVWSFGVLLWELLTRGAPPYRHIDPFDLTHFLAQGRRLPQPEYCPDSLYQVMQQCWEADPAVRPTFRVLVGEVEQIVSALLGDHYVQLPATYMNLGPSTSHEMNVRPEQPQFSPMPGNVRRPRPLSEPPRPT
cMet, sequence (P08581 25-1390): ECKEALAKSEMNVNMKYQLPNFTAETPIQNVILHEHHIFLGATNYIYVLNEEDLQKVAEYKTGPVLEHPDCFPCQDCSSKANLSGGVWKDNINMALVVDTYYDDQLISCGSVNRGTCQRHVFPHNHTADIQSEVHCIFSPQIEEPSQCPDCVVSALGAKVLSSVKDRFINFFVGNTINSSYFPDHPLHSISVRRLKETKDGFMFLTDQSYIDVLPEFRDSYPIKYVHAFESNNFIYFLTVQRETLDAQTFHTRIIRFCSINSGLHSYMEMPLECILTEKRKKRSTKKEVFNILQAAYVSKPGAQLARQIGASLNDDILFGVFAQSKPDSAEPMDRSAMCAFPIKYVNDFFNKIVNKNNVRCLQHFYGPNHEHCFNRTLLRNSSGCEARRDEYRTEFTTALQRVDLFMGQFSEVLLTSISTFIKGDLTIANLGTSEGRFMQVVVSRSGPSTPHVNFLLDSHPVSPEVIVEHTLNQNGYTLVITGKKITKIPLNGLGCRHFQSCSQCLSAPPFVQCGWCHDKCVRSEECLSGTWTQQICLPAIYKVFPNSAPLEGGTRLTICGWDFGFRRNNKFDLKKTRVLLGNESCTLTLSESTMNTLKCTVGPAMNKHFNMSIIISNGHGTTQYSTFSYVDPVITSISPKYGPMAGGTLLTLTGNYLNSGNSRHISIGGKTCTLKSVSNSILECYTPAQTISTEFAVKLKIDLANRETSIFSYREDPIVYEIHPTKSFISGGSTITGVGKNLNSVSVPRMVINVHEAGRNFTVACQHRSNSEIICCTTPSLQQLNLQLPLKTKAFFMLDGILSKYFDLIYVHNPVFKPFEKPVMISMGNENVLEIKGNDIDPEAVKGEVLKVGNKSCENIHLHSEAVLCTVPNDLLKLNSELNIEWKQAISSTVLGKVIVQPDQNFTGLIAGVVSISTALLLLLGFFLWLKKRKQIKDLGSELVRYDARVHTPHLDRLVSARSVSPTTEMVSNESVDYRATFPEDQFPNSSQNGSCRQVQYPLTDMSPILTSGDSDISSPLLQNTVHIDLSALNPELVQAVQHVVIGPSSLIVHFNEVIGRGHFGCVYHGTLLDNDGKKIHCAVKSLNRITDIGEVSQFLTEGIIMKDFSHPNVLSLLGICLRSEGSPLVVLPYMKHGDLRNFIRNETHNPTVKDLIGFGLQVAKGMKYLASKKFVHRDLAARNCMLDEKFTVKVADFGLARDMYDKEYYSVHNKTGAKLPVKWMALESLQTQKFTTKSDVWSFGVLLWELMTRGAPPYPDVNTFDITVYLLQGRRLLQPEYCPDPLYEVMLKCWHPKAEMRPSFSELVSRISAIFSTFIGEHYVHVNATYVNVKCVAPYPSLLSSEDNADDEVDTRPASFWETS

CCOc1ccn(-c2ccc(F)cc2)c(=O)c1C(=O)Nc1ccc(Oc2ccnc(N)c2Cl)c(F)c1 [BMS777607, N-[4-[(2-amino-3-chloro-4-pyridinyl)oxy]-3-fluorophenyl]-4-ethoxy-1-(4-fluorophenyl)-2-oxo-3-pyridinecarboxamide]
IC50 (RON [1]): 8.5 nM | selectivity for RON over cMet (cMet IC50/RON IC50) (RON [1]; ratio): 0.9 | IC50 (cMet): 7.3 nM | tumor growth compared to vehicle control ([2]; RON inhibitor only, BMS777607 20 mpk): slightly lower compared to the vehicle control | potency (GI50) of RON inhibitor in the presence of Dasatinib vs its absence (DMSO) (cancer cell lines): potency (lower GI50) is greater for the RON inhibitor in the presence of Dasatinib than in its absence

Cc1nc(Nc2ncc(C(=O)Nc3c(C)cccc3Cl)s2)cc(N2CCN(CCO)CC2)n1.O [Dasatinib, N-(2-chloro-6-methylphenyl)-2-[[6-[4-(2-hydroxyethyl)-1-piperazinyl]-2-methyl-4-pyrimidinyl]amino]-5-thiazole carboxamide monohydrate]
number of the 506 cell lines more sensitive to Dasatinib than MDA-MB-231 cells (506 cell lines): 119 | tumor growth compared to vehicle control ([2]; SRC inhibitor only, Dasatinib 10 mpk): slightly lower compared to the vehicle control

Cn1cnc(-c2nc3c(Oc4ccc(NC(=O)c5cnn(-c6ccccc6)c5C(F)(F)F)cc4F)ncnc3s2)c1 [ENG-009, N-(3-fluoro-4-((2-(1-methyl-1H-imidazol-4-yl)thiazolo[5,4-d]pyrimidin-7-yl)oxy)phenyl)-1-phenyl-5-(trifluoromethyl)-1H-pyrazole-4-carboxamide]
IC50 (RON [1]): 222 to 291 nM | cMet inhibition (in words) (cMet): inactive

CCN1CCN(CCCOc2cc3nccc(Oc4c(F)cc(NC(=O)NN5C(=O)CSC5c5c(F)cccc5F)cc4F)c3cc2OC)CC1 (stereo not shown) [ENG-013, 1-(2-(2,6-difluorophenyl)-4-oxothiazolidin-3-yl)-3-(4-((7-(3-(4-ethylpiperazin-1-yl)propoxy)-6-methoxyquinolin-4-yl)oxy)-3,5-difluorophenyl)urea]
IC50 (RON [1]): 1.6 nM | selectivity for RON over cMet (cMet IC50/RON IC50) (RON [1]): approximately 10 fold

Cn1cnc(-c2cc3nccc(Oc4ccc(NC(=O)c5cnn(-c6ccccc6)c5C(F)(F)F)cc4F)c3cn2)c1 [ENG-015, N-(3-fluoro-4-((7-(1-methyl-1H-imidazol-4-yl)-1,6-naphthyridin-4-yl)oxy)phenyl)-1-phenyl-5-(trifluoromethyl)-1H-pyrazole-4-carboxamide]
IC50 (RON [1]): 2.8 nM | selectivity for RON over cMet (cMet IC50/RON IC50) (RON [1]): approximately 50 fold | IC30 for RON (RON [1]; printed as IC30): 2.8 nM | selectivity for RON over cMet (cMet IC50/RON IC50) (RON [1]; ratio): > 47 | IC50 (cMet): 133 nM

Cn1cnc(-c2ccc3c(Oc4ccc(NC(=O)c5cnn(-c6ccccc6)c5C(F)(F)F)cc4F)n[nH]c3c2)c1 [ENG-018, N-(3-fluoro-4-((6-(1-methyl-1H-imidazol-4-yl)-1H-indazol-3-yl)oxy)phenyl)-1-phenyl-5-(trifluoromethyl)-1H-pyrazole-4-carboxamide]
RON inhibition (in words) (RON [1]): relatively inactive | cMet inhibition (in words) (cMet): relatively inactive

Cn1cnc(-c2nc3nccc(Oc4ccc(NC(=O)c5cnn(-c6ccccc6)c5C(F)(F)F)cc4F)c3s2)c1 [ENG-035, N-(3-fluoro-4-((2-(1-methyl-1H-imidazol-4-yl)thiazolo[4,5-b]pyridin-7-yl)oxy)phenyl)-1-phenyl-5-(trifluoromethyl)-1H-pyrazole-4-carboxamide]
selectivity for RON over cMet (cMet IC50/RON IC50) (RON [1]): ~2.3 fold | Kd (RON [3]): 43 nM

COc1cc2c(Oc3ccc(NC(=O)C4(C(=O)Nc5ccc(F)cc5)CC4)cc3F)ccnc2cc1OCCCN1CCOCC1 [Foretinib, N1′-[3-fluoro-4-[[6-methoxy-7-(3-morpholinopropoxy)-4-quinolyl]oxy]phenyl]-N1-(4-fluorophenyl)cyclopropane-1,1-dicarboxamide]
potency (GI50) of RON inhibitor in the presence of Dasatinib vs its absence (DMSO) (cancer cell lines): potency (lower GI50) is greater for the RON inhibitor in the presence of Dasatinib than in its absence

CN(C)S(=O)(=O)c1ccc2c(c1)/C(=C/c1cc3c([nH]1)CCCC3)C(=O)N2 [SU-6656, (3Z)-N,N-Dimethyl-2-oxo-3-(4,5,6,7-tetrahydro-1H-indol-2-ylmethylidene)-2,3-dihydro-1H-indole-5-sulfonamide]
IC50 (MDA-MB-231 cells; DMSO only, no Dasatinib): 68.6 µM | IC50 (MDA-MB-231 cells; co-treated with 500 nM Dasatinib): 20.4 µM | IC50 (MDA-MB-231 cells; co-treated with 1 μM Dasatinib): 12.7 µM

CC1=C(C#N)C(c2ccc3[nH]nc(OCCOC(C)C)c3c2)C(C#N)=C(C)N1 [tool compound 2, 4-(3-(2-isopropoxyethoxy)-1H-indazol-5-yl)-2,6-dimethyl-1,4-dihydropyridine-3,5-dicarbonitrile]
IC50 (RON [1]): 8600 nM
